Like-named read-outs stand apart in the source and are kept apart here.
What was measured:
[1] = tested on: PC3 cells (Prostrate Cancer); test: Anticancer (cytotoxic) activity, MTT colorimetric assay; format: cell-based; settings: compounds 1-30 μM, n = 3, read-out: Anticancer activity (PC-3 cell line) IC50 ± SEM
Description: (§1) Various In vitro assays were performed to the assessment of biological activity of newly synthesized compounds. Results were presented here as means ± standard error from triplicate (n = 3) observation. IC50 values were calculated by using EZ-FIT, Enzyme kinetics software by Perrella Scientific.
Cytotoxic activity of compounds was evaluated in 96-well flat-bottomed microplates by using the standard MTT (3-[4, 5-dimethylthiazole-2-yl]-2, 5-diphenyl-tetrazolium bromide, MP) colorimetric assay. For this purpose, PC3 cells (Prostrate Cancer) were cultured in Dulbecco’s Modified Eagle Medium, supplemented with 10% of fetal bovine serum (FBS, PAA), 100 IU/mL of penicillin and 100 μ g/mL of streptomycin in 75 cm^2 flasks, and kept in 5% CO2 incubator at 37°C. Exponentially growing cells were harvested, counted with haemocytometer and diluted with a particular medium with 5% FBS. Cell culture with the concentration of 1x10^5 cells/mL was prepared and introduced (100 μL/well) into 96-well plates. After overnight incubation, medium was removed and 200 μL of fresh medium was added with different concentrations of compounds (1-30 μM). Stock solution, 20 mM of compounds were prepared in 100% DMSO and final concentration of DMSO at 30 μM is 0.15% .After 48 hrs, 200 μL MTT (0.5 mg/mL) was added to each well and incubated further for 4 hrs. Subsequently, 100 μL of DMSO was added to each well. The extent of MTT reduction to formazan within cells was calculated by measuring the absorbance at 570 nm, using a micro plate reader (Spectra Max plus, Molecular Devices, CA, USA). The cytotoxicity was recorded as concentration causing 50% growth inhibition (IC50) for PC3 cells. The percent inhibition was calculated by using the following formula:
% inhibition = 100-((mean of O.D of test compound – mean of O.D of negative control)/ (mean of O.D of positive control – mean of O.D of negative control)*100).
The results (% inhibition) were processed by using Soft- Max Pro software (Molecular Device, USA).

β-Glucuronidase = target: T1, β-Glucuronidase (Escherichia coli, UniProt P05804); test: In vitro β-glucuronidase inhibition assay; format: biochemical; settings: p-nitrophenyl-β-D-glucuronide substrate, 37°C, 405 nm; NA = not active, failed to show 50% or more inhibition at 500 μM or more; read-out: ß-Glucuronidase inhibition IC50 ± SEM
T1 construct: purchased Sigma Aldrich G7396-25KU
T1 sequence (P05804 whole entry): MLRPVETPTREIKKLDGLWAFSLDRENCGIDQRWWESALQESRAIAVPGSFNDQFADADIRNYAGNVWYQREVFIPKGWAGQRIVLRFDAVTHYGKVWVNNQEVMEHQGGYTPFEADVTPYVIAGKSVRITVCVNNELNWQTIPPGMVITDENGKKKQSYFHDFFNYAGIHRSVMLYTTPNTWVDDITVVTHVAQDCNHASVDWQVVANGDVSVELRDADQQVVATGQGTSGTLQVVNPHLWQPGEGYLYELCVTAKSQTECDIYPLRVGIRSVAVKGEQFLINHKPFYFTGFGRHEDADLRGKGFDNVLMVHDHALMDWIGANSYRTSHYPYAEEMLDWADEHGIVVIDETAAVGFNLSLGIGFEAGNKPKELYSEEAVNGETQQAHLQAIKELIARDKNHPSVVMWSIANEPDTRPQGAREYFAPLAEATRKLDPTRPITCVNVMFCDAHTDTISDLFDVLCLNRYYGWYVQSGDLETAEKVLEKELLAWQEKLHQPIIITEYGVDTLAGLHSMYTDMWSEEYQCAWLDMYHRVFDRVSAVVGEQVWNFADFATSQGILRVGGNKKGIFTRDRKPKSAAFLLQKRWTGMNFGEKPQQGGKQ
Description: as §1
β-Glucuronidase inhibitory activity was determined by the spectrophotometric method by measuring the absorbance at 405 nm of p-nitrophenol formed from the substrate (p-nitrophenyl-β-D-glucuronide N1627-250 mg (Sigma Aldrich). The total reaction volume was 250 μL. The compound (5 μL) was dissolved in DMSO (100%), which becomes 2% in the ultimate assay (250 μL) and the similar conditions were used for standard (D-saccharic acid 1, 4-lactone, Sigma Aldrich). The reaction mixture contained 185 μL of 0.1 M acetate buffer, 5 μL of test compound solution, 10 μL of (1U) enzyme solution (G7396-25KU, Sigma Aldrich) was incubated at 37°C for 30 min. The plates were read on a multiplate reader (SpectraMax plus 384) at 405 nm after the addition of 50 μL of 0.4 mM p-nitrophenyl-β-D-glucuronide. All assays were performed in triplicate. IC50 Values were calculated by using EZ-Fit software (Perrella Scientific Inc., Amherst, MA, U.S.A.). These values are the mean of three independent readings.

[2] = DPPH radical scavenging antioxidant assay; settings: DPPH 300 μM, half an hour at 37°C, 515 nm, NA = not active, failed to show 50% or more inhibition at 500 μM or more, read-out: DPPH radical scavenging assay IC50 ± SEM
Description: as §1
Test samples were allowed to react with stable free radical, 1, 1-diphenyl-2-picrylhydrazyl radical (DPPH, Wako Chemicals USA, Inc.)) for half an hour at 37°C. Various concentrations of test samples (prepared in DMSO) were incubated with DPPH (300 μM; prepared in ethanol). After incubation, decrease in absorption was measured at 515 nm using a microplate reader (SpectraMax plus 384). Percentage radical scavenging activity (% RSA) by samples was determined, in comparison with a DMSO- treated control group.% Radical scavenging activity was calculated by using the formula given in statistical analysis section.

Row | SMILES | melting point | IC50 ([1]; Homo sapiens, PC-3, 48 h) | other results
1 | Cc1c(C2=C(C#N)C=NC2)sc2sc(C3=C(C#N)C=NC3)c(-c3ccccc3)c12 [Compound 5, 3-(5-(4-Cyano-2H-pyrrol-3-yl)-3-methyl-4-phenylthieno[2,3-b]thiophen-2-yl)-2H-pyrrole-4-carbonitrile] | > 320 °C | > 30 µM | IC50 (β-Glucuronidase): 0.13 ± 0.019 µM
2 | CC(=O)N[C@@H](CS)C(=O)O [N-Acetylcysteine] | – | – | IC50 ([2]; listed as N-acetylcystein): 106 ± 1.1 µM; IC50 [2]: 106 µM
3 | Cc1c(-c2csc(CC#N)n2)sc2sc(-c3csc(CC#N)n3)c(-c3ccccc3)c12 [Compound 3, 2,2'-(4,4'-(3-Methyl-4-phenylthieno[2,3-b]thiophene-2,5-diyl)bis(thiazole-4,2-diyl)) diacetonitrile] | > 320 °C | > 30 µM | –
4 | Cc1c(-c2coc(N)n2)sc2sc(-c3coc(N)n3)c(-c3ccccc3)c12 [Compound 8a, 4,4'-(3-Methyl-4-phenylthieno[2,3-b]thiophene-2,5-diyl)dioxazol-2-amine] | > 320 °C | > 30 µM | IC50 (β-Glucuronidase): 1.2 ± 0.0785 µM
5 | Cc1c(-c2csc(C(C#N)=Cc3ccccc3)n2)sc2sc(-c3csc(C(C#N)=Cc4ccccc4)n3)c(-c3ccccc3)c12 [Compound 4a, 2-(4-(5-(2-(1-Cyano-2-phenylvinyl)thiazol-4-yl)-3-methyl-4-phenylthieno[2,3-b]thiophen-2-yl)thiazol-2-yl)-3-phenylacrylonitrile] | 220 to 221 °C | > 30 µM | –
6 | COc1cccc2c1C(=O)c1c(O)c3c(c(O)c1C2=O)C[C@@](O)(C(=O)CO)C[C@@H]3O[C@H]1C[C@H](N)[C@H](O)[C@H](C)O1 [Doxorubicin, reference compound] | – | 0.912 ± 0.12 µM | IC50 ([1]; 48 hrs): 0.91 µM
7 | COc1ccc(C=C(C#N)c2nc(-c3sc4sc(-c5csc(C(C#N)=Cc6ccc(OC)cc6)n5)c(-c5ccccc5)c4c3C)cs2)cc1 [Compound 4c, 2-(4-(5-(2-(1-Cyano-2-(4-methoxyphenyl)vinyl)thiazol-4-yl)-3-methyl-4-phenylthieno[2,3-b]thiophen-2-yl)thiazol-2-yl)-3-(4-methoxyphenyl)acrylonitrile] | 238 to 239 °C | – | –
8 | O=C(O)[C@@H](O)[C@H]1OC(=O)[C@H](O)[C@H]1O [D-Saccharic acid 1,4-lactone, reference compound] | – | – | IC50 (β-Glucuronidase): 45.8 µM

More lines, main results first:

Row | melting point | SMILES | IC50 ([1]; Homo sapiens, PC-3, 48 h) | other results
9 | 260 to 261 °C | Cc1c(-c2csc(N)n2)sc2sc(-c3csc(N)n3)c(-c3ccccc3)c12 [Compound 8b, 4,4'-(3-Methyl-4-phenylthieno[2,3-b]thiophene-2,5-diyl)dithiazol-2-amine] | 24.2 ± 0.29 µM | –
10 | > 320 °C | Cc1c(C(=O)CNc2ccc(Cl)cc2)sc2sc(C(=O)CNc3ccc(Cl)cc3)c(-c3ccccc3)c12 [Compound 9b, 1,1'-(3-Methyl-4-phenylthieno[2,3-b]thiophene-2,5-diyl)bis(2-(4-chlorophenylamino)ethanone)] | > 30 µM | –
11 | > 320 °C | Cc1c(C(=O)CNc2ccccc2)sc2sc(C(=O)CNc3ccccc3)c(-c3ccccc3)c12 [Compound 9a, 1,1'-(3-Methyl-4-phenylthieno[2,3-b]thiophene-2,5-diyl)bis(2-(phenylamino)ethanone)] | > 30 µM | –
12 | 167 to 168 °C | Cc1c(-c2csc(C(C#N)=Cc3ccc(Cl)cc3)n2)sc2sc(-c3csc(C(C#N)=Cc4ccc(Cl)cc4)n3)c(-c3ccccc3)c12 [Compound 4b, 3-(4-Chlorophenyl)-2-(4-(5-(2-(2-(4-chlorophenyl)-1-cyanovinyl)thiazol-4-yl)-3-methyl-4-phenylthieno[2,3-b]thiophen-2-yl)thiazol-2-yl)acrylonitrile] | > 30 µM | –
13 | > 320 °C | Cc1c(-c2cn3[nH]cnc3n2)sc2sc(-c3cn4[nH]cnc4n3)c(-c3ccccc3)c12 [Compound 7, 5,5'-(3-Methyl-4-phenylthieno[2,3-b]thiophene-2,5-diyl)bis(1H-imidazo[1,2-b] [1,2, 4]triazole)] | – | –
14 | > 320 °C | Cc1c(-c2cn3c(nc4ccccc43)[nH]2)sc2sc(-c3cn4c(nc5ccccc54)[nH]3)c(-c3ccccc3)c12 [Compound 6, 5,5'-(3-Methyl-4-phenylthieno[2,3-b]thiophene-2,5-diyl)bis(1H-imidazo[1,2a]benzimidazole)] | – | –
15 | > 320 °C | Cc1c(-c2c[nH]c(N)n2)sc2sc(-c3c[nH]c(N)n3)c(-c3ccccc3)c12 [Compound 8c, 4,4'-(3-Methyl-4-phenylthieno[2,3-b]thiophene-2,5-diyl)bis(1H-imidazol-2-amine)] | – | –
